Source: publication PMC11435328, “An Innovative Inhibitor with a New Chemical Moiety Aimed at Biliverdin IXβ Reductase for Thrombocytopenia and Resilient against Cellular Degradation” (Pharmaceutics, 2024)
Read-outs that look alike come from different tables or passages of the source.

Tests used:
half-holo BLVRB = test system: T1, half-holo BLVRB; experiment: 1H-15N HSQC of half-holo BLVRB with 5-ASA; assay type: binding, human; settings: 0.1 mM half-holo BLVRB, 1 mM 5-ASA, HSQC (Figure S3)
T1 construct: His6 (N, cleaved yes); made in house; host or cells: E. coli BL21(DE3), pET-21b
Method: All NMR experiments were performed with the Bruker 800 MHz spectrometer at 25 °C. A total of 0.2 mM ^15N-labeled BLVRB or apo-BLVRB was prepared in buffer (pH 6.5, 50 mM Bis-tris, 50 mM NaCl, and 5% D2O), and their ^1H-^15N heteronuclear single-quantum coherence (HSQC) spectra were recorded in the presence and absence of drug molecules. The 1-dimensional (1D) ^1H spectra to monitor the enzyme reactions were conducted in PBS buffer. The chemical shift perturbation (CSP) data were presented using the square root of (ΔH)^2 + [(ΔN)/6]^2 to normalize the relative effects from the CSPs of ^1H and ^15N [44]. The diffusion-ordered spectroscopy (DOSY) spectra were measured using the ledbpgppr2s, with 80 ms diffusion delay, 2 s relaxation delay, and 32 gradient strength increments. The backbone assignments were referenced from BMRB Entry ID: 27463 for holo BLVRB and Entry ID: 27462 for apo BLVRB to assign the spectra in the presence and absence of the drug.
Figure S3. 5-ASA binding of half-holo BLVRB: (A) The 1H-15N HSQC spectra of 0.1 mM half-holo BLVRB in the absence (black) and presence (red) of 1 mM 5-ASA. (B) Chemical shift diﬀerences between half-holo BLVRB and BLVRB in complex with OSK (black) and 5-ASA (red). (C) NMR ti-tration data for binding to half-holo BLVRB. […]

[1] = target: T2, human BLVRB (half-holo BLVRB) (Homo sapiens, UniProt P30043); experiment: Isothermal titration calorimetry (ITC) of drug binding to half-holo BLVRB; settings: 25 °C
T2 construct: His6 (N, cleaved yes); made in house; host or cells: E. coli BL21(DE3), pET-21b
T2 sequence (P30043 1-206): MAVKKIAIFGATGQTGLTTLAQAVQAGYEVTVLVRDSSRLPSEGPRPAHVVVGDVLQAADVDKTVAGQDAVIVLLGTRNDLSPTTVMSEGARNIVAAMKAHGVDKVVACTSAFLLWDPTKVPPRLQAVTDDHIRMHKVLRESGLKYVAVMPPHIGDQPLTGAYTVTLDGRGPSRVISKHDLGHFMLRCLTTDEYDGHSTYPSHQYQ
Method: (§1) The human BLVRB protein was prepared following the previously reported method. Briefly, the N-terminal His6-tagged BLVRB was expressed in the E. coli BL21(DE3) strain using the pET-21b protein expression vector. The transformed E. coli cells were grown in LB and M9 media at 37 °C to express the nonlabeled and isotope-labeled (^15N or ^13C/^15N) BLVRB proteins, respectively. To induce protein expression, 0.5 mM IPTG was added to the cultures when the OD600 reached 0.8, and then the cells were harvested after ~3–4 h. Cells were lysed by sonication in buffer (pH 8.0, 25 mM Tris-HCl, 500 mM NaCl, and 10 mM β-mercaptoethanol). The BLVRB protein was first purified by His-tag affinity column chromatography using the HisTrap HP column (Cytiva). To remove the His-tag, the protein elution was dialyzed in buffer (pH 8.0, 50 mM Tris-HCl, and 1 mM dithiothreitol) overnight at 4 °C, after adding thrombin (~5 units per mg protein). Since thrombin bound to HiTrap-Q HP column at pH 8.0, ion-exchange column chromatography was performed with buffer (pH 8.0, 25 mM Tris-HCl, and 1 mM dithiothreitol), and then the elution was performed with 1.0 M NaCl gradient; BLVRB and thrombin eluted at ~150 and ~300 mM NaCl, respectively. To separate the His6-tagged BLVRB from the completely cleaved BLVRB, the HisTrap HP column was tandemly attached to the next of the HiTrap-Q column. The BLVRB protein was further purified by size exclusion chromatography (SEC) using the HiLoad 16/600 Superdex 75 (Cytiva) with nonbuffered solution (50 mM NaCl and 1 mM dithiothreitol). The protein fractions were concentrated using an ultracentrifugal filter with 10 kDa MWCO (Millipore, Burlington, MA, USA) and then were stored at −70 °C before use. Apo-BLVRB was prepared using the previously reported refolding method, with additional column chromatography steps. Briefly, the purified BLVRB was denatured in buffer (pH 7.5, 25 mM Tris-HCl, 10 mM β-mercaptoethanol, and 6.0 M urea) and then applied to the HisTrap HP column. After washing with buffer (pH 5.0, 25 mM Na-acetate, 10 mM β-mercaptoethanol, and 6.0 M urea), they were eluted with an additional 1.0 M NaCl gradient. After 2-fold dilution with buffer (pH 5.0, 20 mM Na-acetate, 10 mM β-mercaptoethanol, and 6.0 M urea), apo-BLVRB was further purified by cation-exchange column chromatography using the HiTrap-SP column (Cytiva). Protein elution was performed by 1.0 M NaCl gradient in the presence of 6.0 M urea. The protein was refolded by dialysis in buffer (pH 6.5, 50 mM Bis-tris, 150 mM NaCl, and 1 mM DTT). After removing the aggregate (~20%) by centrifuge, it was purified by SEC using the HiLoad 16/600 Superdex 75 with buffer (pH 6.5, 10 mM Bis-tris, 50 mM NaCl, and 1 mM DTT). The apo-BLVRB solution was concentrated and then stored at −70 °C. Although thawing the frozen sample caused ~10% precipitation of apo-BLVRB, the maintenance of the structure was confirmed by ^1H-^15N HSQC spectrum. The concentration was also determined using UV absorption with an extinction coefficient (A280) of 14,440 M^−1⋅cm^−1. The purity was confirmed by SDS-PAGE gel analysis.
The ITC experiment was conducted in buffer (pH 6.5, 50 mM Bis-tris, 50 mM NaCl, and 0.1 mM TCEP) using a Microcal Auto-iTC200 (Malvern Instruments, Malvern, UK) at 25 °C. The calorimetric cell (200 μL) and syringe (40 μL) were loaded with 0.09 mM BLVRB and 1.1 mM drug (OSK or OSA), respectively. The ITC data were analyzed after subtracting the heat from blank injections that were measured under the same conditions but in the absence of BLVRB. Data processing was carried out using the Origin software provided by the manufacturer, where the fittings were performed with a one-site binding model.

apo-BLVRB = target: T3, apo-BLVRB (Homo sapiens, UniProt P30043); experiment: NMR 1H-15N HSQC chemical shift perturbation titration of apo-BLVRB; assay type: binding; settings: for Kd: Apo-BLVRB from NMR CSP experiment; for binding to apo-BLVRB: HSQC of apo-BLVRB titrated with drug (Figure S4)
T3 construct: His6 (N); made in house; host or cells: E. coli BL21(DE3), pET-21b
T3 sequence (P30043 1-206): T2 sequence (P30043 1-206)
Method: as §1, with “After 2-fold dilution with buffer (pH 5.0, 20 mM Na-acetate, 10 mM β-mercaptoethanol, and 6.0 M urea), apo-BLVRB was further purified by cation-exchange column chromatography using the HiTrap-SP column (Cytiva). Protein elution was performed by 1.0 M NaCl gradient in the presence of 6.0 M urea. The protein was refolded by dialysis in buffer (pH 6.5, 50 mM Bis-tris, 150 mM NaCl, and 1 mM DTT). After removing the aggregate (~20%) by centrifuge, it was purified by SEC using the HiLoad 16/600 Superdex 75 with buffer (pH 6.5, 10 mM Bis-tris, 50 mM NaCl, and 1 mM DTT). The apo-BLVRB solution was concentrated and then stored at −70 °C. Although thawing the frozen sample caused ~10% precipitation of apo-BLVRB, the maintenance of the structure was confirmed by ^1H-^15N HSQC spectrum.” left out, “The purity was confirmed by SDS-PAGE gel analysis.” left out
(§2) All NMR experiments were performed with the Bruker 800 MHz spectrometer at 25 °C. A total of 0.2 mM ^15N-labeled BLVRB or apo-BLVRB was prepared in buffer (pH 6.5, 50 mM Bis-tris, 50 mM NaCl, and 5% D2O), and their ^1H-^15N heteronuclear single-quantum coherence (HSQC) spectra were recorded in the presence and absence of drug molecules. […] The diffusion-ordered spectroscopy (DOSY) spectra were measured using the ledbpgppr2s, with 80 ms diffusion delay, 2 s relaxation delay, and 32 gradient strength increments. […]

[2] = cited from earlier work
BLVRB = target: T4, BLVRB (Homo sapiens, UniProt P30043); experiment: BLVRB enzyme activity assay (NADPH absorption at 340 nm, FMN substrate); assay type: biochemical; settings: for uncompetitive inhibition constant (Kiu) / Ki: 0.5 µM BLVRB, 100 µM FMN, 100 µM NADPH, PBS, 0.5% DMSO, mixed inhibition model; for Ki: read-out: competitive inhibition constant (Kic); for inhibition pattern (Lineweaver–Burk plot): BLVRB in the presence of NADPH; for maximum velocity (Vm): enzyme parameter of BLVRB from the fit of the data set with this inhibitor
T4 construct: His6 (N, cleaved yes); made in house; host or cells: E. coli BL21(DE3), pET-21b
T4 sequence (P30043 1-206): T2 sequence (P30043 1-206)
Method: Enzyme kinetics were monitored using the absorption of NADPH at 340 nm with the SpectraMax Gemini EM Microplate Reader (Molecular Devices, San Jose, CA, USA). The enzyme reactions were conducted with 0.5 µM BLVRB, 100 µM FMN, and 100 µM NADPH in PBS buffer containing 0.5% DMSO in the presence of various concentrations of inhibitors (OSK and OSA). The initial velocities of the reactions were estimated from data collected over 5 min and were fitted to the Michaelis–Menten equation. The inhibition model and inhibition constants were determined using the in-house Python script of nonlinear least squares regression fitting.

[3] = test system: T5, Escherichia coli (E. coli) AzoR; experiment: Cleavage by partially purified AzoR fraction, monitored by 1D 1H NMR; assay type: in vitro ADME; settings: incubation with column fraction containing AzoR activity and NAD(P)H
T5 construct: E. coli DH5α cells were cultured in LB medium to obtain AzoR protein at 37 °C; endogenous in cells; host or cells: E. coli DH5α induced with 2-MHQ; Hitrap-Q anion-exchange fraction
Method: E. coli DH5α cells were cultured in LB medium to obtain AzoR protein at 37 °C. Since various electrophilic quinones increase the mRNA level of the acpD gene-encoding AzoR protein [36], 0.5 mM methylhydroquinone (2-MHQ) was added to the culture when the optical density of the cells at 600 nm (OD600) reached 0.8. The cells were harvested by centrifugation after ~3–4 h. To enrich the AzoR protein, anion-exchange column chromatography using the Hitrap-Q HP column (Cytiva, Marlborough, MA, USA) was performed, in which the column was pre-equilibrated with buffer (pH 8.0, 25 mM Tris-HCl), and then 1.0 M NaCl gradient was applied to elute proteins. The AzoR activity in the elution fractions was measured by the enzyme activity assay using 0.1 mM menadione and 0.1 mM NADH, in which decreasing absorption at 340 nm was measured following the previously reported method. […]
as §2

[4] = target: T2, human BLVRB (half-holo BLVRB); design: method as in PMID 34957824; settings: ITC, 25 °C; cited from earlier work
rats = test system: rats; design: method as in PMID 2160137; settings: cited from earlier work

Row | Structure (SMILES) | Kd [1] [nM] | TΔS [1] [kcal/mol] | ΔG [1] [kcal/mol] | ΔH [1] [kcal/mol] | Kd (apo-BLVRB) [nM] | binding to apo-BLVRB (apo-BLVRB) | uncompetitive inhibition constant (Kiu) (BLVRB) [µM] | Ki (BLVRB) [nM] | inhibition pattern (Lineweaver–Burk plot) (BLVRB) | maximum velocity (Vm) (BLVRB) [µM/min] | cleavage by AzoR [3] | further results
1 | Nc1ccc(O)c(C(=O)O)c1 [5-ASA, 5-aminosalicylic acid] | – | – | – | – | – | – | – | – | – | – | – | binding to BLVRB (half-holo BLVRB): reduced significantly
2 | O=C(O)c1cc(/N=N/c2ccc(O)c(C(=O)O)c2)ccc1O [Olsalazine, olsalazine] | 150 ± 230 | -4.22 ± 0.13 | -9.32 ± 0.09 | -13.54 ± 0.08 | 9310 ± 2410 | able to bind to the apo-BLVRB | 0.79 ± 0.06 | 550 ± 40 | mixed inhibition pattern | 4.71 ± 0.09 | cleavage of its diazenyl bond and the formation of 5-ASA | plasma elimination half-life [2]: approximately 1 h
3 | O=C(O)c1cc(/C=C/c2ccc(O)c(C(=O)O)c2)ccc1O [Olsalkene, (E)-5,5′-(ethene-1,2-diyl)bis(2-hydroxybenzoic acid)] | 140 ± 270 | -5.98 ± 0.17 | -9.33 ± 0.11 | -15.31 ± 0.12 | 11400 ± 2220 | able to bind to the apo-BLVRB | 0.61 ± 0.06 | 560 ± 100 | mixed inhibition pattern | 4.80 ± 0.16 | remains intact and is not cleaved by AzoR | –
4 | O=C([O-])c1c(Cl)c(Cl)c(Cl)c(Cl)c1-c1c2cc(Br)c(=O)c(Br)c-2oc2c(Br)c([O-])c(Br)cc12.[Na+].[Na+] [Phloxine B, phloxine B] | – | – | – | – | – | – | – | – | – | – | – | Kd [4]: 1360 ± 220 nM; TΔS [4]: 4.12 ± 0.12 kcal/mol; ΔG [4]: -8.00 ± 0.10 kcal/mol; ΔH [4]: -3.88 ± 0.06 kcal/mol
5 | O=C1OC2(c3ccccc31)c1cc(I)c(O)c(I)c1Oc1c2cc(I)c(O)c1I [erythrosin B] | – | – | – | – | – | – | – | – | – | – | – | effect of chronic administration (rats): thyroid stimulation
